Three compounds from article PMC12011786, “Pharmacokinetics and stability of methoxyflavones from Kaempferia parviflora in Thai native roosters” (Frontiers in Veterinary Science, 2025) can be followed below.

The series is described as follows: Pharmacokinetics of methoxyflavones after single oral administration of KP ethanolic extract in roosters. In kind it is in vivo, Thai native roosters (Pradu Hang Dum breed). Particulars: for AUC / Cmax / Tmax / half-life / k el: male, Thai native Pradu Hang Dum, whole blood; for AUC: po; for Cmax / Tmax / half-life / Cl / Vd: n = 9; for k el: n = 9, read-out: Ke (converted). As for the experimental part:
Twenty-seven male Thai native Pradu Hang Dum breed roosters were selected for this study. The sample size was calculated by using the G*power program with the following parameters: α = 0.05, power of test = 0.8, standard deviation = 0.05, and effect size = 0.6. The sample size was nine in each group. […] All animals were obtained from the Research and Development Network Center of Animal Breeding and Omics at Khon Kaen University, Thailand. The roosters were housed in separate cages (60 × 45 × 45 cm) within an open-house system. They were fed a daily commercial diet of 130 g, containing 16% crude protein. Water was provided ad libitum throughout the study.
Blood samples (1 mL) were collected from the brachial vein of each rooster after gentle restraint. The collected blood was immediately transferred into a 1.5 mL microtube containing 10% heparin and gently inverted several times to ensure thorough mixing and prevent clot formation.
The roosters were randomly divided into three groups (n = 9 per group) and orally administered KP extract at different doses: 100, 150, and 200 mg/kg of body weight. The KP extract was prepared by dissolving in a solution of 28% propylene glycol, 35% polyethylene glycol 400, 2% ethanol, and deionized water (added until the total volume was 100%). For the method of animal administration, two individuals administered the KP extract to the chickens. One person restrained each chicken by holding its wings and legs, while the other administered the extract orally via a 10 mL syringe, according to body weight.
After oral administration, blood samples were collected at certain time intervals (0.5, 1, 2, 4, 6, and 12 h). The samples were then stored at −20°C until further analysis.
To extract methoxyflavones from the blood samples, all samples were extracted by liquid–liquid extraction two times using acetonitrile. Each sample was vortexed for 2 min and sonicated for 5 min with 1 mL of acetonitrile. After centrifugation at 2,000 × g for 2 min, the supernatant was transferred to clean microtubes, evaporated to dryness, and reconstituted with 200 μL of methanol. The samples were then filtered through 0.45-μm syringe filters and analyzed using an HPLC assay. Pharmacokinetic parameters were determined using the PKSolver add-in program ([21]).

[1] abbreviates: 100 mg/kg, single oral KP extract 100 mg/kg, blood, n = 9, read-out: AUC.
The mark [2] stands for this setting: 150 mg/kg, single oral KP extract 150 mg/kg, blood, n = 9, read-out: AUC.
Setting [3] is: 200 mg/kg, range over oral KP extract doses 100, 150, 200 mg/kg, read-out: area under the curve (AUC).
[4] abbreviates: 200 mg/kg, single oral KP extract 200 mg/kg, blood, n = 9, read-out: AUC.
The mark [5] stands for this setting: single oral KP extract 100 mg/kg, blood.
[6] abbreviates: single oral KP extract 150 mg/kg, blood.
Where [7] appears, read: single oral KP extract 200 mg/kg, blood.

In general, AUC refers to the area under the concentration-time curve, a measure of exposure. As usually defined, the Cmax is the highest concentration seen after dosing. One may read the Tmax as the time from dosing to the highest level. The term half-life denotes the time in which the quantity being followed falls by half. A high value points to slow loss.

Like-named read-outs stand apart in the source and are kept apart here.

As to `COc1cc(OC)c2c(=O)cc(-c3ccccc3)oc2c1` [DMF, 5,7-dimethoxyflavone], the AUC was 1020 ± 230 ng·h/mL under setting [1], 1450 ± 170 ng·h/mL under setting [2], 1020 to 1680 ng·h/mL under setting [3] and 1680 ± 570 ng·h/mL under setting [4]. Also, the Cmax was found to be 340 ± 100 ng/mL under setting [5], 500 ± 50 ng/mL under setting [6] and 540 ± 80 ng/mL under setting [7]. The Tmax under setting [5] was determined as 1.17 ± 0.37 h, the Tmax under setting [6] came to 1.33 ± 0.49 h and the Tmax under setting [7] amounted to 1.17 ± 0.37 h. Also, the half-life reads like this: under setting [5], 2.56 ± 0.49 h; under setting [6], 2.57 ± 0.2 h; under setting [7], 2.6 ± 0.28 h. For the same compound, the k el was 7.78e-05 s⁻¹ under setting [5], 8.33e-05 s⁻¹ under setting [6] and 9.17e-05 s⁻¹ under setting [7]. Moreover, the Cl reads like this: under setting [5], 137 ± 29.7 mL/min/kg; under setting [6], 120 ± 27.7 mL/min/kg; under setting [7], 123 ± 36.8 mL/min/kg. In addition, the Vd reads like this: under setting [5], 18.9 ± 1.78 L/kg; under setting [6], 19.1 ± 1.78 L/kg; under setting [7], 19.5 ± 2.28 L/kg.
`COc1cc(OC)c2c(=O)c(OC)c(-c3ccc(OC)c(OC)c3)oc2c1` [PMF, 3,5,7,3′,4′-pentamethoxyflavone]: the AUC under setting [1] came to 2620 ± 340 ng·h/mL. Under setting [2], the AUC was found to be 3010 ± 420 ng·h/mL. Further, the AUC under setting [3] was 2620 to 3060 ng·h/mL. Also, the AUC under setting [4] amounted to 3060 ± 570 ng·h/mL. Further, under setting [5], the Cmax came to 640 ± 60 ng/mL, the Tmax was 1.83 ± 0.37 h, the half-life is 2.03 ± 0.34 h and the k el is 9.72e-05 s⁻¹. Further, under setting [5], the Cl is 41 ± 7 mL/min/kg and the Vd came to 7.78 ± 0.63 L/kg. Moreover, under setting [6], the Cmax came to 810 ± 120 ng/mL, the Tmax stood at 1.8 ± 0.4 h, the half-life was 2.24 ± 0.71 h and the k el was 0.000111 s⁻¹. Moreover, under setting [6], the Cl came out at 47.2 ± 12.7 mL/min/kg and the Vd is 8.24 ± 1.14 L/kg. Under setting [7], the Cmax stood at 830 ± 110 ng/mL, the Tmax is 1.83 ± 0.37 h, the half-life is 2.27 ± 0.93 h and the k el is 0.000114 s⁻¹. Under setting [7], this compound displayed a Cl of 53.7 ± 8.67 mL/min/kg and a Vd of 8.69 ± 1.25 L/kg.
Consider `COc1ccc(-c2cc(=O)c3c(OC)cc(OC)cc3o2)cc1` [TMF, 5,7,4′-trimethoxyflavone], for which the AUC under setting [1] came out at 1200 ± 150 ng·h/mL. The AUC under setting [2] stood at 1360 ± 150 ng·h/mL. Further, the AUC under setting [3] fell in the range of 1200 to 1450 ng·h/mL. In addition, under setting [4], the AUC turned out to be 1450 ± 120 ng·h/mL. Further, under setting [5], the Cmax was 380 ± 90 ng/mL, the Tmax came to 1.25 ± 0.56 h, the half-life was 2.15 ± 0.71 h and the k el was 8.33e-05 s⁻¹. For the same compound, under setting [5], the Cl stood at 76.3 ± 9.83 mL/min/kg and the Vd amounted to 17.8 ± 5.61 L/kg. Further, under setting [6], the Cmax is 530 ± 60 ng/mL, the Tmax came to 1.25 ± 0.4 h, the half-life is 2.01 ± 0.31 h and the k el is 9.44e-05 s⁻¹. Under setting [6], this compound gave a Cl of 97.3 ± 11.2 mL/min/kg and a Vd of 20 ± 3.32 L/kg. In addition, under setting [7], the highest level (Cmax) was 590 ± 60 ng/mL, the Tmax turned out to be 1.33 ± 0.47 h, the half-life was 2.03 ± 0.37 h and the k el is 0.000103 s⁻¹. Under setting [7], this compound yielded a Cl of 82.5 ± 26.3 mL/min/kg and a Vd of 12.7 ± 1.73 L/kg.
